{
  "source": "patent USRE38132E1",
  "about": "“Phenylpyrrolidines, phenylimidazolidines,3-phenyl-1,3-oxizolidines and 3-phenyl-1,3-thiazolidines and their use in the treatment of inflammatory disease” (Boehringer Ingelheim Pharmaceuticals, Inc., priority 1997, dated 2003)",
  "key": {"[1]": {"system": "cell bound fibronectin receptor (VLA4) with fibronectin, SKW3 cells", "experiment": "Inhibition of SKW3 cell binding to fibronectin (selectivity counter-assay)", "assay_type": "cell-based, human", "outline": "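Plates coated with sICAM-1 (40 μg/mL) or fibronectin (100 μg/mL) for 1 h; SKW3 cells in RPMI/15% FBS activated with PMA (50 μg/mL final) added with compound, 2 h at 37° C. Unbound cells washed off; value is concentration (μM) giving 50% binding inhibition.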"}, "[2]": {"system": "human MLR, peripheral blood mononuclear cells", "experiment": "Inhibition of the mixed lymphocyte reaction (MLR), tritiated thymidine uptake", "assay_type": "cell-based", "parameters": "key: Data are reported as “+” or “−” at a given concentration (in μM); Data are reported as “+” or “−” at a given concentration (in μM)"}, "[3]": {"target": "T1, interaction of ICAM-1 with the Leukointegrin CD18/CD11a (LFA-1) (Homo sapiens, UniProt P05107+P20701)", "T1 construct": "endogenous in cells; sICAM-1: made in house, secreted from transfected CHO DUX cells", "T1 sequence (P20701 26-1170)": "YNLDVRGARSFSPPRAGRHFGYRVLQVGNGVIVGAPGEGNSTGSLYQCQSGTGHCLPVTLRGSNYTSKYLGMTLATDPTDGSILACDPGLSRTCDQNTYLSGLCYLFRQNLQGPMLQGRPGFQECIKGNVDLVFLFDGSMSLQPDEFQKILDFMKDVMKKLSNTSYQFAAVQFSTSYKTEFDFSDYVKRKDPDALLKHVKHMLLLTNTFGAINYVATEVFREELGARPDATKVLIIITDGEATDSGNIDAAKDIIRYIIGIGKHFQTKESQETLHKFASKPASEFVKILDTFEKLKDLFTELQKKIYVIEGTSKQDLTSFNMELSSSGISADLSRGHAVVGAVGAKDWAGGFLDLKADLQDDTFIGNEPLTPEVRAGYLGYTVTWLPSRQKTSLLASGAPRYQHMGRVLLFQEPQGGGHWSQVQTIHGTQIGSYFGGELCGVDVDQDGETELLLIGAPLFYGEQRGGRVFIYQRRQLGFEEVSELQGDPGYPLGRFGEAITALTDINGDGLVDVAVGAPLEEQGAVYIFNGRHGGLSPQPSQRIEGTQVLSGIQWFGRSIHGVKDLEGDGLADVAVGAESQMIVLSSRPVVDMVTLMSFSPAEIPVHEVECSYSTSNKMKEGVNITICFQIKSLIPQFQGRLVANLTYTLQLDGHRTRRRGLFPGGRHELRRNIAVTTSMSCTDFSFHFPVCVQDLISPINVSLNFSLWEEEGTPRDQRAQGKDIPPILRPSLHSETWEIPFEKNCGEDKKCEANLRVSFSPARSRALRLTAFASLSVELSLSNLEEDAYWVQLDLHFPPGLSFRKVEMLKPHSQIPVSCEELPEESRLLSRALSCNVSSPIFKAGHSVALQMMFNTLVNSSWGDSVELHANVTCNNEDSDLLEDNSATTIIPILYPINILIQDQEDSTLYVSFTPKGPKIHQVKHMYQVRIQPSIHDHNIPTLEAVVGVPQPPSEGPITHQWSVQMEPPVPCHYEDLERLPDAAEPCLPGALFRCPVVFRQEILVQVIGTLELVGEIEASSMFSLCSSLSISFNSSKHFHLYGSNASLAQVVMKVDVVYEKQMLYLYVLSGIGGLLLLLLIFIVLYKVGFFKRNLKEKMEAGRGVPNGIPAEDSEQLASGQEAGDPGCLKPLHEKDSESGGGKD", "T1 sequence (P05107 23-769)": "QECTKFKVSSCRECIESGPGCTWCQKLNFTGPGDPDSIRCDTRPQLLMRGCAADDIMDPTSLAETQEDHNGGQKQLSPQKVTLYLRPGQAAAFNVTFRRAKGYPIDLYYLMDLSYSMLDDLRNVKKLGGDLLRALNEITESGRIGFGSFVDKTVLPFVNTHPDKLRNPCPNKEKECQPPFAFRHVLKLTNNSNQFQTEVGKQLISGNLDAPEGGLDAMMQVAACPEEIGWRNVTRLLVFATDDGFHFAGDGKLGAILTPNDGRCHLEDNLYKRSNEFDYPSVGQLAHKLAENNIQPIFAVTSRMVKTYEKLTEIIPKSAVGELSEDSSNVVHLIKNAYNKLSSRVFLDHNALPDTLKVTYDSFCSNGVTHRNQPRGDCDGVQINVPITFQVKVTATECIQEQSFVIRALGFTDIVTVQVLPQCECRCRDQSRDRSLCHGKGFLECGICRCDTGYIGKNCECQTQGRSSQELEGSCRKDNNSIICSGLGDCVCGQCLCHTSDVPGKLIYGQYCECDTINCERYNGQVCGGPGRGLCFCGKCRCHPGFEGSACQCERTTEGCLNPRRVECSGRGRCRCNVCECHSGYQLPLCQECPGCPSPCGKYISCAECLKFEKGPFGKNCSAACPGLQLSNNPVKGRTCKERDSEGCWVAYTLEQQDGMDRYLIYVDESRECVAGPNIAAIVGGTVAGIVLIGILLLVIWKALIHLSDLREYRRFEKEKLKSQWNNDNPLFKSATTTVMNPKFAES", "experiment": "Assay to determine inhibition of LFA-1 binding to ICAM-1 (immunopurified LFA-1 on plate-bound sICAM-1, ELISA readout)", "conditions": "values marked e approximated from incomplete dose-response curve"}},
  "data": [
    {"smiles": "C[C@]1(Cc2ccc(Br)cc2)NC(=O)N(c2cc(Cl)cc(Cl)c2)C1=O", "note": "[Example 29]", "values": [
      {"measurement": "Cellular Toxicity Assay MTT LD50", "setting": "SKW3 cells", "value": "63 to 125", "unit": "µM"},
      {"measurement": "Assay to Detect SKW3 Cells Binding to FIBRONECTIN IC50", "setting": "[1]; values marked c: no inhibition observed up to highest dose", "value": "No inh^c"},
      {"measurement": "Mixed Lymphocyte Reaction MLR +/−", "setting": "[2]; at 50 μM", "value": "+(50)"}
    ]},
    {"smiles": "CC(=O)N1C(=O)N(c2cc(Cl)cc(Cl)c2)C(=O)[C@@]1(C)Cc1ccc(Br)cc1", "note": "[Example 102]", "values": [
      {"measurement": "Cellular Toxicity Assay MTT LD50", "setting": "SKW3 cells", "value": ">400", "unit": "µM"},
      {"measurement": "Kd", "setting": "[3]", "value": 60, "unit": "nM"},
      {"measurement": "IC50", "setting": "[1]; Homo sapiens, SKW3, values marked c: no inhibition observed up to highest dose, read-out: Assay to Detect SKW3 Cells Binding to FIBRONECTIN IC50", "value": "> 200000", "unit": "nM"},
      {"measurement": "Mixed Lymphocyte Reaction MLR +/−", "setting": "[2]; at 25 μM", "value": "+(25)"}
    ]}
  ]
}
